Source: patent publication US20250049930A1, “PROTAC MOLECULES TARGETING FOXP3 AND USES THEREOF” (CEDARS-SINAI MEDICAL CENTER, priority 2022, published 2025)
Residues, ends and D or L forms follow the SMILES beside them. *: point of attachment. X1 = O=C1CCC(N2C(=O)c3cccc(*)c3C2=O)C(=O)N1; PEG4 = NCCOCCOCCOCCOCCC(=O)O

Columns and labels:
FoxP3 = target: T1, FoxP3 (Homo sapiens, UniProt Q9BZS1); assay: FoxP3 expression in CD4+ human PBMC, flow cytometry; type: cell-based; conditions: 10 μM, 3 days, PMA 10 ng/ml and Ionomycin 2 μg/ml, difference to P60 not significant
T1 construct: endogenous in cells; host or cells: human PBMC (CD4+ gated)
T1 sequence (Q9BZS1 1-431): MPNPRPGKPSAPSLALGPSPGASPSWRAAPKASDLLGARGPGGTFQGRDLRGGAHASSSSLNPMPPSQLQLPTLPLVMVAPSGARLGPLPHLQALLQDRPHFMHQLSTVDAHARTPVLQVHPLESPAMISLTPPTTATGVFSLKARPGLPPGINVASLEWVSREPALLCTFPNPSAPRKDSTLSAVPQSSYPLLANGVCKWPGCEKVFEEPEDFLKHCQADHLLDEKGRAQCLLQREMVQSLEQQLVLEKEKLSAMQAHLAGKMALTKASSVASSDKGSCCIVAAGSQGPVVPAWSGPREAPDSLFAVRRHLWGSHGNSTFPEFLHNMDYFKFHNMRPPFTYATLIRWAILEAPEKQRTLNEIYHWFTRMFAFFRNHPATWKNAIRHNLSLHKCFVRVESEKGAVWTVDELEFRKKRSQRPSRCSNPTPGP
Protocol: (§1) FIGS. 7A-7C depict that PF decreases FoxP3 and the immunosuppressive function of human CD4+ cells. Human peripheral blood mononuclear cells (PBMC) were treated in vitro with PF (10 μM) or various control drugs (10 μM) for 3 days (FIG. 7A). PMA 10 ng/ml and Ionomycin 2 μg/ml were added during PF treatment to induce FoxP3 (FIG. 7A). Resulting cells were gated on CD4 and assessed for FoxP3 expression by flow cytometry. To treat Tregs, CD4+ PBMC were isolated and treated with PF or various controls for 72 hours. […] CD8 proliferation was measured using a CFSE dilution assay. To assess CD8+ effector cells, CD4 negative splenocytes were CFSE labeled and CFSE dilution was measured in CD8+ cells by flow cytometry (FIG. 7B). In the same experiment, CD8+ cells were assessed for activation by gating on CD8 and assessing IFNγ or TNFα by flow cytometry (FIG. 7C). […]
(§2) Human peripheral blood mononuclear cells (PBMC) were treated with phorbol 12-myristate 13-acetate (PMA) (10 ng/ml) and Ionomycin (2 μg/ml) to increase FoxP3 expression. […] CD8 proliferation was measured using a CFSE dilution assay. Immune activation was assessed by measuring TNFα or IFNγ in CD8+ or CD4+ T cells using flow cytometry.
(§3) P60 was designed to bind both mouse and human FoxP3. Therefore, we evaluated PF using human peripheral blood mononuclear cells (PBMC). […] Resulting cells were gated on CD4 and assessed for FoxP3 expression by flow cytometry. […]

Tregs = assay: Treg immunosuppression co-culture assay with human PBMC (CFSE dilution, IFNγ, TNFα); type: cell-based; conditions: human CD4+ PBMC treated 72 hours (10 μM), co-cultured with CD4− PBMC stimulated with αCD3 and αCD28; difference to P60 significant
Protocol: as §1, §2, §3

Compound: CSCC[C@H](NC(=O)[C@H](C)NC(=O)[C@H](Cc1ccccc1)NC(=O)[C@H](Cc1ccccc1)NC(=O)[C@@H]1CCCN1C(=O)[C@H](Cc1c[nH]c2ccccc12)NC(=O)[C@H](CCSC)NC(=O)[C@H](CCCCN)NC(=O)[C@H](CCCNC(=N)N)NC(=O)[C@H](Cc1ccccc1)NC(=O)[C@H](CO)NC(=O)[C@H](CCC(N)=O)NC(=O)[C@H](Cc1ccccc1)NC(=O)[C@H](CC(=O)O)NC(=O)[C@H](CCCNC(=N)N)NC(=O)CCOCCOCCOCCOCCNc1cccc2c1C(=O)N(C1CCC(=O)NC1=O)C2=O)C(=O)O (stereo partly drawn) [PF, Pomalidomide-PEG4-RDFQSFRKMWPFFAM] ({X1-PEG4}-RDFQSFRKMWPFFAM-OH)
- percent of CD4+ cells expressing FoxP3 (FoxP3): decreased the percent of CD4+ cells expressing FoxP3 when compared to control
- CD8+ lymphocyte activation as measured by IFNγ or TNFα (Tregs): greatest enhancement of CD8+ lymphocyte activation
- CD8+ lymphocyte proliferation (CFSE dilution) (Tregs): highest CD8+ lymphocyte proliferation
